Source: the NIST ThermoML archive (doi:10.1021/je800618x)
± gives the expanded uncertainty stated by the source.

Settings: Crystal; DTA

Normal melting temperature: 103.20 ± 0.41 °C
SMILES: CC[n+]1ccccc1.F[P-](F)(F)(F)(F)F [1-ethylpyridinium hexafluorophosphate]
